Read-outs that look alike come from different tables or passages of the source.
Tests used:
Test in all cases: KinomeScan kinase panel, single concentration 10 µM
Assay type in all cases: binding
KinomeScan kinase panel [1] = molecular target: T1, KinomeScan kinase panel (Homo sapiens, UniProt Q13470); conditions: read-out: score (%)
T1 construct: purchased DiscoveRx (KinomeScan)
T1 sequence (Q13470 1-666): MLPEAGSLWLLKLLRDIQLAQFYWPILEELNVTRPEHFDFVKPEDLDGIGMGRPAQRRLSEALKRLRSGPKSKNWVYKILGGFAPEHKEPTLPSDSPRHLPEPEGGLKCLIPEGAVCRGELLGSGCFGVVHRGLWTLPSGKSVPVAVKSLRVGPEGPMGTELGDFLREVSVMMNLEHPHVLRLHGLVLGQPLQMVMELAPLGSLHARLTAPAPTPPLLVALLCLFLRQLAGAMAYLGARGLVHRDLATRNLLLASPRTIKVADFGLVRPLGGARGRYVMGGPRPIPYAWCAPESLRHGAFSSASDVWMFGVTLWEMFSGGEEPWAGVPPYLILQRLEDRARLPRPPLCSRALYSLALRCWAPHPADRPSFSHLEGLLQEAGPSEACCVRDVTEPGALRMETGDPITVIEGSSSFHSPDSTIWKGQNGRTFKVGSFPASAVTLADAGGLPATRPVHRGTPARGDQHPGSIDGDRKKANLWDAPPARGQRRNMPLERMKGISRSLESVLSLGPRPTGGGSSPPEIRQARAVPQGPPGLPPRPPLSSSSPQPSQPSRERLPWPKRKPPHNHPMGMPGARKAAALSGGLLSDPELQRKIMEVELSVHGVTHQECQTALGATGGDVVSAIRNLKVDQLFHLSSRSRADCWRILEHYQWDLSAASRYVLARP

KinomeScan kinase panel [2] = molecular target: T2, KinomeScan kinase panel (Homo sapiens, UniProt Q9BRS2); conditions: read-out: score (%)
T2 construct: purchased DiscoveRx (KinomeScan)
T2 sequence (Q9BRS2 1-568): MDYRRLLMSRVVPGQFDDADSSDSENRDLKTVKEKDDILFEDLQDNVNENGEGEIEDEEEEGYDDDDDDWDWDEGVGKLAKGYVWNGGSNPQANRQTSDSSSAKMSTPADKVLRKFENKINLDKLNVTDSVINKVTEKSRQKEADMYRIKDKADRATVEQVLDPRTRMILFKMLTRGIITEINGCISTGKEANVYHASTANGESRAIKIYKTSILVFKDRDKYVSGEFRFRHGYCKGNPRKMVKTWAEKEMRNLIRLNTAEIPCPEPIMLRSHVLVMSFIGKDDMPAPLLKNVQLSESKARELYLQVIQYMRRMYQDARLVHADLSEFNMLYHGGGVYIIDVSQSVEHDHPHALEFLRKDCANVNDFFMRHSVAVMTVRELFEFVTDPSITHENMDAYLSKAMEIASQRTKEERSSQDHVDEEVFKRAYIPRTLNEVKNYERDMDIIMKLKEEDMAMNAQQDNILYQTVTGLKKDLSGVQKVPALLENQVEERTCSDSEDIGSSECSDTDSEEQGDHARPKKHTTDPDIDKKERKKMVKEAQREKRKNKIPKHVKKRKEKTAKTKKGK

KinomeScan kinase panel [3] = molecular target: T3, KinomeScan kinase panel (Homo sapiens, UniProt Q9H3Y6); conditions: 10 µM, read-out: score (%)
T3 construct: purchased DiscoveRx (KinomeScan)
T3 sequence (Q9H3Y6 whole entry): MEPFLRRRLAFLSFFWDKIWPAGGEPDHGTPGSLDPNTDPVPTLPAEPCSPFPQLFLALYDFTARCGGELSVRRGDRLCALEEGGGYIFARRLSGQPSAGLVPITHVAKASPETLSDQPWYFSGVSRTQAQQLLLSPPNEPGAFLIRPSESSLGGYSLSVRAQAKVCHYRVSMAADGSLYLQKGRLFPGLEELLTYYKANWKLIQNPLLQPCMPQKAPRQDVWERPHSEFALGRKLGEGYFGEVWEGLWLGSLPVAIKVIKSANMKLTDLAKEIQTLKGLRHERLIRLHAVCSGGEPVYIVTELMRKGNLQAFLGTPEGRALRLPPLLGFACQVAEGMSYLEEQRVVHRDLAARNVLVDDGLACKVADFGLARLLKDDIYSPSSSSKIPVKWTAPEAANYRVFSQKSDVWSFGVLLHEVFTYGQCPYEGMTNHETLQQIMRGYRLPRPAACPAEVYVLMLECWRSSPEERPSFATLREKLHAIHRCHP

KinomeScan kinase panel [4] = molecular target: T4, KinomeScan kinase panel (Homo sapiens, UniProt P53778); conditions: p38-gamma, 10 µM; read-out: score (%)
T4 construct: purchased DiscoveRx (KinomeScan)
T4 sequence (P53778 1-367): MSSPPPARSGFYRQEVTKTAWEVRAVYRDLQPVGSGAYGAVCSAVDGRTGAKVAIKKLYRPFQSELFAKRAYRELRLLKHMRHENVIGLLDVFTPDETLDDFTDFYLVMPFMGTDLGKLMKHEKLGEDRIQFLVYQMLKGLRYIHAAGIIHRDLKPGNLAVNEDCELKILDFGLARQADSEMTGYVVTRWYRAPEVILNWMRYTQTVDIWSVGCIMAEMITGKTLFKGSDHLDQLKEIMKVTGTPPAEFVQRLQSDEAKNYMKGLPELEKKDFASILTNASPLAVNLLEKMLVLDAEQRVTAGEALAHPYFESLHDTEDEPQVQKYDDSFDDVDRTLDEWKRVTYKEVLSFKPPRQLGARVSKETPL

KinomeScan kinase panel [5] = molecular target: T5, KinomeScan kinase panel (Homo sapiens, UniProt O95835); conditions: LATS1, 10 µM; read-out: score (%)
T5 construct: purchased DiscoveRx (KinomeScan)
T5 sequence (O95835 1-1130): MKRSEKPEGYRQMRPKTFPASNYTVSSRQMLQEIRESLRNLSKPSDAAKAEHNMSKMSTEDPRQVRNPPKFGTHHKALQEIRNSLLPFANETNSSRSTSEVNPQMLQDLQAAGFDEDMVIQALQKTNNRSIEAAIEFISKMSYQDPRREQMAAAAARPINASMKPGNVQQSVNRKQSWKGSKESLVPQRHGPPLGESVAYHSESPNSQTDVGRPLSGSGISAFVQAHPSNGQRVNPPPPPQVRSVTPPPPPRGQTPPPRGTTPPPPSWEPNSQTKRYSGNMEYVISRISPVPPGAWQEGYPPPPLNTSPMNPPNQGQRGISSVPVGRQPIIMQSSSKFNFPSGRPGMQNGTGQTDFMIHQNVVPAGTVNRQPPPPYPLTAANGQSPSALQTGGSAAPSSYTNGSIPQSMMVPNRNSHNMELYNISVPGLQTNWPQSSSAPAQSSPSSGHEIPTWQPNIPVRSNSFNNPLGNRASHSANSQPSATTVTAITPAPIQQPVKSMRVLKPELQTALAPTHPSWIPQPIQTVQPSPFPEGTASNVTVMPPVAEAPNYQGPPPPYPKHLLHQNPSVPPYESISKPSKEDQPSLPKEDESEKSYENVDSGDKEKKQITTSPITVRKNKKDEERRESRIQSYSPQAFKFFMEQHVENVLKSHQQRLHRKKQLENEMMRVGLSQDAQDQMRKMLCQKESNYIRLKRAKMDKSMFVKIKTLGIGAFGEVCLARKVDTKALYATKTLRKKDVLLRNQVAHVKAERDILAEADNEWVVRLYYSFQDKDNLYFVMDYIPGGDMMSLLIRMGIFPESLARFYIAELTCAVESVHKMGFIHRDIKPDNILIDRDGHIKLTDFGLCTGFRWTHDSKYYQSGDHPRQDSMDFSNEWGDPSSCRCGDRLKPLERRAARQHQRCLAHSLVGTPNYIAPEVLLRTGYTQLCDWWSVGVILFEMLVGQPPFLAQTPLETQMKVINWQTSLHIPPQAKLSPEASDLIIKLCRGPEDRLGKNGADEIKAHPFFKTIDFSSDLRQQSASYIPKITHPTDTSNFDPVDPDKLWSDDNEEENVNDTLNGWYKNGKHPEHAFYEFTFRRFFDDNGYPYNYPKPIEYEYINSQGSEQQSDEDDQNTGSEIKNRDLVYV

KinomeScan kinase panel [6] = molecular target: T6, KinomeScan kinase panel (Homo sapiens, UniProt P49840); conditions: GSK3A, 10 µM; read-out: score (%)
T6 construct: purchased DiscoveRx (KinomeScan)
T6 sequence (P49840 whole entry): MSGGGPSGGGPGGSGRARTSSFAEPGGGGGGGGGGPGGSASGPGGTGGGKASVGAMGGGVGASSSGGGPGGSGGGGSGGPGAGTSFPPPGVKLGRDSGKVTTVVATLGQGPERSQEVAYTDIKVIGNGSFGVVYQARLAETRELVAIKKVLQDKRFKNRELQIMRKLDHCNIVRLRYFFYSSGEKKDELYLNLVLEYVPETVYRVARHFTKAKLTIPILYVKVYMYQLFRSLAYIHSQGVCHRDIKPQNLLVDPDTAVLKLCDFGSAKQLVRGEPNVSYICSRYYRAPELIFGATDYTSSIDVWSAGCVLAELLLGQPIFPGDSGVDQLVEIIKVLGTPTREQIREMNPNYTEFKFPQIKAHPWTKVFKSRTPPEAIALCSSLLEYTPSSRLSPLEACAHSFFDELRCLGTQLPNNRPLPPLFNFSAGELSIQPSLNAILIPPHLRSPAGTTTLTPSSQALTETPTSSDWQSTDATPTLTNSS

| remaining binding at 10 µM (KinomeScan kinase panel [1]; TNK1, 10 µM) | remaining binding at 10 µM (KinomeScan kinase panel [3]; SRMS) | SMILES | remaining binding at 10 µM (KinomeScan kinase panel [1]; kinase TNK1, 10 µM) | remaining binding at 10 µM (KinomeScan kinase panel [2]; RIOK1, 10 µM) | remaining binding at 10 µM (KinomeScan kinase panel [3]; kinase SRMS) | remaining binding at 10 µM (KinomeScan kinase panel [4]) | remaining binding at 10 µM (KinomeScan kinase panel [5]) | remaining binding at 10 µM (KinomeScan kinase panel [6]) | remaining binding at 10 µM (KinomeScan kinase panel [2]; kinase RIOK1, 10 µM) |
| --- | --- | --- | --- | --- | --- | --- | --- | --- | --- |
| – | – | CCN1CCN(Cc2ccc(NC(=O)c3ccc(C)c(NC(=O)c4cncc(-c5cccs5)c4)c3)cc2C(F)(F)F)CC1 [ALW-II-41-27] | 7.7% | > 30% | 2.8% | 3.6% | > 30% | > 30% | – |
| 0.8% | 23% | CCN1CCN(Cc2ccc(NC(=O)c3ccc(C)c(/C=C/c4cnc5[nH]ccc5c4Cl)c3)cc2C(F)(F)F)CC1 [HG-6-63-01, (E)-3-(2-(4-chloro-1H-pyrrolo[2,3-b]pyridin-5-yl)vinyl)-N-(4-((4-ethylpiperazin-1-yl)methyl)-3-(trifluoromethyl)phenyl)-4-methylbenzamide] | – | 0.2% | – | 13% | > 30% | > 30% | – |
| – | – | CCN1CCN(Cc2ccc(NC(=O)c3ccc(C)c(C#Cc4cccnc4)c3)cc2C(F)(F)F)CC1 [XMD15-44] | 0% | – | 0% | 2.7% | 20% | > 30% | 90% |
